Assay results reported in ChEMBL document CHEMBL3351804, “Development of 2-aryl substituted quinazolin-4(3H)-one, pyrido[4,3-d]pyrimidin-4(3H)-one and pyrido[2,3-d]pyrimidin-4(3H)-one derivatives as microsomal prostaglandin E(2) synthase-1 inhibitors” (Bioorg Med Chem Lett, 2014).

Assays:
Prostaglandin E synthase [1] = target: T1, Prostaglandin E synthase (Homo sapiens, UniProt O14684); assay: Inhibition of mPGES-1 in human A549 cells assessed as inhibition of IL-1beta-induced PGE2 production incubated for 30 mins prior to IL-1beta challenge measured after 18 to 24 hrs; assay type: cell-based
T1 sequence (O14684 whole entry): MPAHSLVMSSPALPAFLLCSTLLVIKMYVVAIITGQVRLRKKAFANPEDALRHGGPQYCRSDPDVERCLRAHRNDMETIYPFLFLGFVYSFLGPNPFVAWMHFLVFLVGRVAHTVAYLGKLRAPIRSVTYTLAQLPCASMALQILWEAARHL

Prostaglandin E synthase [2] = target: T1, Prostaglandin E synthase; assay: Inhibition of mPGES-1 in human whole blood assessed as inhibition of LPS-induced PGE2 production after overnight incubation
[3] = target: Prostaglandin G/H synthase 1 (Homo sapiens) (UniProt P23219); assay: Inhibition of COX1 in human U937 cells at 10 uM; assay type: cell-based; details: U-937
[4] = target: T2, Prostaglandin G/H synthase 2 (Homo sapiens) (UniProt P35354); assay: Inhibition of recombinant COX2 (unknown origin) at 10 uM
T2 sequence (whole entry): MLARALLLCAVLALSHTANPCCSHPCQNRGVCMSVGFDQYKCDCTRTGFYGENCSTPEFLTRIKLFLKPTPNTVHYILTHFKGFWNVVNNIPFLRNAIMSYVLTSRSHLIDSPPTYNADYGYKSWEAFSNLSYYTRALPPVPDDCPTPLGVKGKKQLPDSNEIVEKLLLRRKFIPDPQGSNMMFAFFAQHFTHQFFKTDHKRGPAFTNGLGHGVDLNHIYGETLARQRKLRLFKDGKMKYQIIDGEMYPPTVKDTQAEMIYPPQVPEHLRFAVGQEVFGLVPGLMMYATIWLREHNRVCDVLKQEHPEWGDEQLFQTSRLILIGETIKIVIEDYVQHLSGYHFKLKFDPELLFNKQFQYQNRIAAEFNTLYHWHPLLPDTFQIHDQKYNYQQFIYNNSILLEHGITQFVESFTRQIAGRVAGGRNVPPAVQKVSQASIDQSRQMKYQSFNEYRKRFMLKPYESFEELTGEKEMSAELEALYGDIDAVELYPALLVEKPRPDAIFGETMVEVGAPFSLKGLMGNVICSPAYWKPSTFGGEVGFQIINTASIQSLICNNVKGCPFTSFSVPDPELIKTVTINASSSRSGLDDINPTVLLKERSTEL

[5] = target: Prostaglandin E synthase 2 (Homo sapiens) (UniProt Q9H7Z7); assay: Inhibition of recombinant mPGES-2 (unknown origin) at 10 uM
[6] = target: T3, Prostaglandin E synthase 3 (Homo sapiens) (UniProt Q15185); assay: Inhibition of recombinant cPGES (unknown origin) at 10 uM
T3 sequence (whole entry): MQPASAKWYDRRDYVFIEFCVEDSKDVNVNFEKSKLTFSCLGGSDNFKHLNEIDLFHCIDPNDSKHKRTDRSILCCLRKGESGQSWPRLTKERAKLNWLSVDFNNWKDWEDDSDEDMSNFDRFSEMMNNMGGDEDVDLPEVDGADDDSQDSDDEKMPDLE

[7] = target: Hematopoietic prostaglandin D synthase (Homo sapiens) (UniProt O60760); assay: Inhibition of recombinant PGDS (unknown origin) at 10 uM
[8] = target: T4, Thromboxane-A synthase (Homo sapiens) (UniProt P24557); assay: Inhibition of recombinant TXAS (unknown origin) at 10 uM
T4 sequence (whole entry): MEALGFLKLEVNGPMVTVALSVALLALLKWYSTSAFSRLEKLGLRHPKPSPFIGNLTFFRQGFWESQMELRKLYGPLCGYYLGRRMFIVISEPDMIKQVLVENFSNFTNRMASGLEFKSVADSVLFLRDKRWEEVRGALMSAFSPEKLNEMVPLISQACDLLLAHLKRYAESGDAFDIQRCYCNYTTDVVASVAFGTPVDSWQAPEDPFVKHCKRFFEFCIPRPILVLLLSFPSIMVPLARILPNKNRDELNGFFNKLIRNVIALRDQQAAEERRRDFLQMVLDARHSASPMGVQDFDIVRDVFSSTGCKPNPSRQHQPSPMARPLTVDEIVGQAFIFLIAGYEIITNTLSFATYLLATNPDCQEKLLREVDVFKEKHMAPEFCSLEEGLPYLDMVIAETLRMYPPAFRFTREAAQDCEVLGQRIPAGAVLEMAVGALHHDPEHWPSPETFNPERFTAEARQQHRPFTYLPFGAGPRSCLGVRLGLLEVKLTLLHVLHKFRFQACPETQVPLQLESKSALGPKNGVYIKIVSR

[9] = target: Prostaglandin F2-alpha receptor (Homo sapiens) (UniProt P43088); assay: Induction of recombinant PGF2-alpha (unknown origin) at 10 uM
[10] = target: T5, Cytosolic phospholipase A2 (Homo sapiens) (UniProt P47712); assay: Inhibition of cPLA2 (unknown origin) at 10 uM
T5 sequence (whole entry): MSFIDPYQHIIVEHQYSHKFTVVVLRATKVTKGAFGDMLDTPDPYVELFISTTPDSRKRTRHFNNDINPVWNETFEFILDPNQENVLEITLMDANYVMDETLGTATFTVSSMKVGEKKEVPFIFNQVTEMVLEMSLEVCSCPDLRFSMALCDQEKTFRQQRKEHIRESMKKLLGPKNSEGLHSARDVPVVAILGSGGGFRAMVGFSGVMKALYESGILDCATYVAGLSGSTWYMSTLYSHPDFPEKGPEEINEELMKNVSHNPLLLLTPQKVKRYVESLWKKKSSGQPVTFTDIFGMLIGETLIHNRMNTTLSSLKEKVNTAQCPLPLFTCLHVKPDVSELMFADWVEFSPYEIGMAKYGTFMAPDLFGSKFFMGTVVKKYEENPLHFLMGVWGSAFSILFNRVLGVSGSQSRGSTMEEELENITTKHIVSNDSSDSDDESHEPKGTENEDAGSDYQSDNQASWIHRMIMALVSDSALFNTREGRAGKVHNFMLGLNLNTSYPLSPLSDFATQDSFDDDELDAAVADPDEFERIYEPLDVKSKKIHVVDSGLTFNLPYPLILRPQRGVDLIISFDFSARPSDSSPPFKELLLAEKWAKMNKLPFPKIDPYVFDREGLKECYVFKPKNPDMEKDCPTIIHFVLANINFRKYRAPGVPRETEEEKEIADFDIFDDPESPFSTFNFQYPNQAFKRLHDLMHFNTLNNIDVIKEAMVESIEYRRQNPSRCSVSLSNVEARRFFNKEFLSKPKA

[11] = Inhibition of mPGES-1 in guinea pig whole blood assessed as inhibition of LPS-induced PGE2 production after overnight incubation; assay type: tissue-based; details: Cavia porcellus
[12] = Cmax in Sprague-Dawley rat at 10 mg/kg, po; assay type: ADME, organism-based; set-up: dose 10 mg/kg, route oral; details: in vivo
[13] = AUClast in Sprague-Dawley rat at 10 mg/kg, po; assay type: ADME, organism-based; set-up: time 0 - last, dose 10 mg/kg, route oral; details: plasma
[14] = Tmax in Sprague-Dawley rat at 10 mg/kg, po; assay type: ADME, organism-based; set-up: dose 10 mg/kg, route oral; details: in vivo
[15] = Stability in human liver microsomes assessed as compound remaining after 60 mins; assay type: ADME; details: read-out: Stability
[16] = Stability in rat liver microsomes assessed as compound remaining after 60 mins; assay type: ADME; details: read-out: Stability
[17] = Stability in guinea pig liver microsomes assessed as compound remaining after 60 mins; assay type: ADME, Cavia porcellus; details: read-out: Stability

Sequence of Prostaglandin F2-alpha receptor (Homo sapiens) (P43088 whole entry): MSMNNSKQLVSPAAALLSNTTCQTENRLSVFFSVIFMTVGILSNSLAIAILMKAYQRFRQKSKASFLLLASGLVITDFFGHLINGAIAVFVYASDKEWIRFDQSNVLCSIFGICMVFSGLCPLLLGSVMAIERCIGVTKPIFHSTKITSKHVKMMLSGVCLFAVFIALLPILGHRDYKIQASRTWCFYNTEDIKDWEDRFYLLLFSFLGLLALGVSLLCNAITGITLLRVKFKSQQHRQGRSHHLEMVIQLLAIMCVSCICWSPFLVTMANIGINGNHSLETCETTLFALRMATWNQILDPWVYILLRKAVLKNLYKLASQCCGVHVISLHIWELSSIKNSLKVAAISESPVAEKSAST
Sequence of Prostaglandin E synthase 2 (Homo sapiens) (Q9H7Z7 whole entry): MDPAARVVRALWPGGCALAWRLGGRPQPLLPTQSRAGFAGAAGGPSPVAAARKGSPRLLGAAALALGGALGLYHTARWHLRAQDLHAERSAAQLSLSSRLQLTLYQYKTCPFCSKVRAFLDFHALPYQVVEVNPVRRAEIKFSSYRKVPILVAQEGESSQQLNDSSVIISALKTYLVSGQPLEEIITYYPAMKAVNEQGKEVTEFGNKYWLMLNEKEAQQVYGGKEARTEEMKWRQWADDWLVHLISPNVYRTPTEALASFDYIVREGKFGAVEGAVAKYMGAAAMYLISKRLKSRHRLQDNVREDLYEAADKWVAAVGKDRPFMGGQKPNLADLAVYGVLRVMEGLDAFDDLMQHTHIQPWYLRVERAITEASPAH
Sequence of Hematopoietic prostaglandin D synthase (Homo sapiens) (O60760 whole entry): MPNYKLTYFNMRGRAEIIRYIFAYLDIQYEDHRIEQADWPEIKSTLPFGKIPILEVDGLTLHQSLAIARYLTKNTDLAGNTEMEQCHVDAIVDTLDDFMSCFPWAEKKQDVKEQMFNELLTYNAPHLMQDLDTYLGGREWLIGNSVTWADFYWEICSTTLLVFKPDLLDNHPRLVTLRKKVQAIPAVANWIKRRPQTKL
Sequence of Prostaglandin G/H synthase 1 (Homo sapiens) (P23219 whole entry): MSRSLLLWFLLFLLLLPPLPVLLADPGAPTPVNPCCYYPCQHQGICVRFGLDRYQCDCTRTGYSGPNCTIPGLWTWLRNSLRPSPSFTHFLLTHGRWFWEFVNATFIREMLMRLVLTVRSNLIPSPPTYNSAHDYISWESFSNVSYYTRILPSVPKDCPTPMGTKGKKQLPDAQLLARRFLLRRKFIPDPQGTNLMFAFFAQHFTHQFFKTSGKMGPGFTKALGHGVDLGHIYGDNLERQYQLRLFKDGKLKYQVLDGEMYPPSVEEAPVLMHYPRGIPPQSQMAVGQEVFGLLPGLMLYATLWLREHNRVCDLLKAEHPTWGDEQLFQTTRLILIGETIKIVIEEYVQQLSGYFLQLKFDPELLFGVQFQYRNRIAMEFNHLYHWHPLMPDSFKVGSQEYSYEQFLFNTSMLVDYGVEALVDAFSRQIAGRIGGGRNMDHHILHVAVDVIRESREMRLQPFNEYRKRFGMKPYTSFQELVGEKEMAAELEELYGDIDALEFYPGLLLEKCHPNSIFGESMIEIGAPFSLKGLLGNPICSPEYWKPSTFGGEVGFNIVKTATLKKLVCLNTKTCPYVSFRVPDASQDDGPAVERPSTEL

IC50 (Prostaglandin E synthase [1]): 0.005 µM | IC50 (Prostaglandin E synthase [2]): 0.376 µM | inhibition [3]: 2.74% | inhibition [4]: 4.87% | inhibition [5]: 0.02% | inhibition [6]: 18.7% | inhibition [7]: 18.7% | inhibition [8]: 10.5% | Activity [9]: 186% | inhibition [10]: 12.1% | IC50 [11]: 0.161 µM | Cmax [12]: 0.072 µg/mL | AUC(0-t) [13]: 1.23 µg·h/mL | Tmax [14]: 24 h | remaining at 1 h [15]: 91% | remaining at 1 h [16]: 77% | remaining at 1 h [17]: 87%
SMILES: CC(C)C(=O)NCc1ccc(Cl)c(-c2nc3cc(-c4ccc(C(F)(F)F)cc4)ncc3c(=O)[nH]2)c1
